Laboratory results published in PubChem BioAssay AID1648 (Sanford-Burnham Center for Chemical Genomics, 2009).
Active and inactive are the calls of the source. No rule for the calls is given here.

Target: Serine/threonine-protein kinase mTOR (Homo sapiens) (UniProt P42345)
Assay: binders of mTOR FRB domain, biophysical, NMR (AID 1648)
Settings: NMR binding to FRB domain, chemical shift

Sequence of Serine/threonine-protein kinase mTOR (Homo sapiens) (P42345 2015-2114): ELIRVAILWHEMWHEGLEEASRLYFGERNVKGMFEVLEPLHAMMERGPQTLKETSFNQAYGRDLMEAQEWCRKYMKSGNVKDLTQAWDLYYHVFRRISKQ

Structure (SMILES) | Kd
C[n+]1ccn(C/C(N)=N/O)c1 | > 4 mM (inactive)
CC(=O)Oc1ccc2c(c1OC(C)=O)OCC1(O)Cc3c(cc(OC(C)=O)c(OC(C)=O)c3OC(C)=O)C21 (stereo not drawn) | > 4 mM (inactive)
Cn1c(SCCC(=O)O)nnc1-c1cccnc1 | > 4 mM (inactive)
Nc1nc2[nH]c(=O)c(=O)[nH]c2c(=O)[nH]1 | > 4 mM (inactive)
COc1cc(C)c(Cl)cc1S(=O)(=O)N(C)C | > 4 mM (inactive)
COc1c(O)cc2c(-c3ccccc3)cc(=O)oc2c1OC | > 4 mM (inactive)
CC1(C(=O)O)CC2C=CC1C2 (stereo not drawn) | > 4 mM (inactive)
COC(=O)C(O)[C@@H]1C2(C)C(=O)[C@@H](CC3=C4CC(=O)O[C@@H](c5ccoc5)[C@]4(C)CCC32)[C@H](OC(C)=O)C1(C)C (stereo partly drawn) | > 4 mM (inactive)
O=C1Cn2c(nc3ccccc32)N1c1ccccc1F | > 4 mM (inactive)
O=C(Nc1ccon1)c1ccc2c(c1)OCO2 | > 4 mM (inactive)
O=C(Nc1nnc(-c2ccccc2Cl)o1)c1ccco1 | > 4 mM (inactive)
CC(=O)Nc1ccn(Cc2c(F)cccc2Cl)n1 | > 4 mM (inactive)
Nc1nc(SCc2ccc3c(c2)OCO3)n[nH]1 | > 4 mM (inactive)
O=C(NCC1CCCCC1)c1ccco1 | > 4 mM (inactive)
Cc1cc(C(=O)N2CCN(c3ncccn3)CC2)c(C)o1 | > 4 mM (inactive)
NCc1nnnn1-c1ccccc1 | > 4 mM (inactive)
CC(=O)O[C@H]1C[C@@H](OC(C)=O)C(C)(C)C2C[C@@H](OC(C)=O)[C@]3(C)C(CC[C@@]4(C)[C@H](c5ccoc5)OC(=O)[C@H]5O[C@]543)[C@]21C (stereo partly drawn) | > 4 mM (inactive)
c1nnc2c3c4c(sc3ncn12)CCCC4 | > 4 mM (inactive)
Cc1oc(-c2ccccc2)nc1CCO | > 4 mM (inactive)
Cc1ccc(SCc2nc(-c3ccncc3)no2)cc1 | > 4 mM (inactive)
COc1cccc(-c2csc(NC(C)=O)n2)c1 | > 4 mM (inactive)
CS(=O)(=O)Nc1nnc(Cc2ccccc2)s1 | > 4 mM (inactive)
CC(=O)c1cc(CN2C(=O)c3ccccc3C2=O)cs1 | > 4 mM (inactive)
CC1CCN(S(=O)(=O)N(C)C)CC1 | > 4 mM (inactive)

Structure (SMILES) | Kd
COC(=O)c1ccc(NC(=O)CC2NCCNC2=O)cc1 (stereo not drawn) | > 4 mM (inactive)
Cn1c(CN)nc2ccccc21 | > 4 mM (inactive)
COC(=O)c1cccs1 | > 4 mM (inactive)
OCC1CNc2ccccc2O1 (stereo not drawn) | > 4 mM (inactive)
CC(=O)c1c(C)nc(-c2ccc(F)cc2)n1O | > 4 mM (inactive)
O=C(O)CC1C(=O)NCCN1Cc1cccs1 (stereo not drawn) | > 4 mM (inactive)
Nc1ncnc2c1ncn2C1C[C@H](O)[C@@H](CO)O1 (stereo partly drawn) | > 4 mM (inactive)
CCOC(=O)c1c(C)nc2cc(C)ccn12 | > 4 mM (inactive)
CC(=O)c1cc(C(N)=O)c(=S)[nH]c1C | > 4 mM (inactive)
COC1(C)CCC2OC2(C)CCC2C1CC2(C)C (stereo not drawn) | > 4 mM (inactive)
COC(=O)c1cc2ccccc2cn1 | > 4 mM (inactive)
O=C1CC(=O)N(Cc2ccco2)C(=S)N1 | > 4 mM (inactive)
C[C@H]1C(=O)CCC2[C@]3(C)CC[C@@]4(C)C5CC(C)(C)CC[C@]5(C)CC[C@]4(C)C3CC[C@@]21C (stereo partly drawn) | > 4 mM (inactive)
O=c1nc(NCc2ccco2)sc2ncccc12 | > 4 mM (inactive)
CC(C)[C@@H]1CC[C@@H](C)CC1=O | > 4 mM (inactive)
O=C1c2ccccc2C(=O)N1CCc1ccccn1 | > 4 mM (inactive)
O=C(O)c1ccc2occc2c1 | > 4 mM (inactive)
COc1ccc(-c2cc(=O)c3c(O)cc(O[C@H]4O[C@H](CO[C@@H]5O[C@@H](C)[C@H](O)[C@@H](O)[C@H]5O)[C@@H](O)[C@H](O)[C@H]4O)cc3o2)cc1 | > 4 mM (inactive)
Nn1c(CN2CCCCC2)nc2ccccc2c1=O | > 4 mM (inactive)
CN1CCN(C2CCSC2)CC1 (stereo not drawn) | > 4 mM (inactive)
COc1cc2c(cc1OC)C(=O)OC2 | > 4 mM (inactive)
OCc1ccc(OC(F)(F)F)cc1 | > 4 mM (inactive)
c1ccc(-c2nsc(N3CCNCC3)n2)cc1 | > 4 mM (inactive)
Nc1cc(=O)[nH]c(=S)n1-c1ccc(F)cc1 | > 4 mM (inactive)

Structure (SMILES) | Kd
COc1ccc(C2CC(=O)NN2)cc1OC1CCCC1 (stereo not drawn) | > 4 mM (inactive)
OCc1cccc2nonc12 | > 4 mM (inactive)
CN1CN(Cc2ccccc2)CN/C1=N/[N+](=O)[O-] | > 4 mM (inactive)
O=C1NC(=S)N/C1=C\c1ccccc1 | > 4 mM (inactive)
COc1c(-c2ccccc2)oc2c(OC)cccc2c1=O | > 4 mM (inactive)
CC(=O)c1cccc(NS(=O)(=O)N(C)C)c1 | > 4 mM (inactive)
CC(=O)Nc1sc(C)c(C)c1C(N)=O | > 4 mM (inactive)
CC1CC[C@@]2(OC1)O[C@H]1CC3C4CC[C@@H]5C[C@@H](O)CC[C@]5(C)C4CC[C@]3(C)[C@H]1[C@@H]2C (stereo partly drawn) | > 4 mM (inactive)
Cc1ccccc1NC(=O)N1CCOCC1 | > 4 mM (inactive)
C=CCc1ccc2c(c1)OCO2 | > 4 mM (inactive)
CC(=O)Oc1cccc2ccc(=O)[nH]c12 | > 4 mM (inactive)
COc1ccc(-c2cc3nc4n(c(=O)c3s2)CCC4)cc1 | > 4 mM (inactive)
Cc1ccc(-c2nnn(CC(=O)O)n2)cc1 | > 4 mM (inactive)
NS(=O)(=O)c1ccc(N2CCCC2=O)cc1 | > 4 mM (inactive)
NCc1cccc2nsnc12 | > 4 mM (inactive)
Cc1ccc2cc(CO)ccc2n1 | > 4 mM (inactive)
c1ccc(CN2CCC3(CC2)Nc2ccccc2CO3)cc1 | > 4 mM (inactive)
O=C(Nc1ccc2ccccc2c1)c1cnccn1 | > 4 mM (inactive)
COC1CC(O[C@H]2CC[C@]3(C=O)C4CC[C@]5(C)C(C6=CC(=O)OC6)CC[C@]5(O)C4CC[C@]3(O)C2)OC(C)C1O (stereo partly drawn) | > 4 mM (inactive)
Cc1nc(SCC(=O)c2c[nH]c3ccccc23)n[nH]1 | > 4 mM (inactive)
COC(=O)C1=CCCN(C)C1 | > 4 mM (inactive)
O=C(Nn1cnnc1)c1ccccc1Cl | > 4 mM (inactive)
NC(=O)CN=Cc1c(O)[nH]c2ccccc12 | > 4 mM (inactive)
CCNC(=S)Nc1c(C)n(C)n(-c2ccccc2)c1=O | > 4 mM (inactive)

Structure (SMILES) | Kd
Cc1ccc(NC(=O)C2CCN(S(C)(=O)=O)CC2)cc1 | > 4 mM (inactive)
CC(=O)c1csc(-c2cc(C)on2)n1 | > 4 mM (inactive)
Nn1cnn2c(SCc3ccccc3)nnc12 | > 4 mM (inactive)
COc1ccc(NC(=O)C2CC(=O)N=C(N)S2)cc1 (stereo not drawn) | > 4 mM (inactive)
CC(=O)c1sc(NC(=O)C=C(C)C)nc1C | > 4 mM (inactive)
O=C(O)c1ccc(-n2cccc2)cc1 | > 4 mM (inactive)
CCOC(=O)c1sc(SC)c2c1CCCC2O (stereo not drawn) | > 4 mM (inactive)
COc1ccc(Cc2nccc3cc(OC)c(OC)cc23)cc1OC | > 4 mM (inactive)
NC1Cc2ccccc2C1 | > 4 mM (inactive)
Cc1c(C(=O)Nc2ccccc2)sc(N)c1C(N)=O | > 4 mM (inactive)
Cc1occc1C(=O)NCc1ccncc1 | > 4 mM (inactive)
O=C(O)c1ccc2c(c1)CCO2 | > 4 mM (inactive)
COc1ccc(-c2cn[nH]c2N)c(OC)c1 | > 4 mM (inactive)
COc1cc2c(cc1O)CCNC2C (stereo not drawn) | > 4 mM (inactive)
Cc1ccnc(NS(=O)(=O)c2ccccc2)n1 | > 4 mM (inactive)
CC(=O)Nc1c(C)n(C)n(-c2ccccc2)c1=O | > 4 mM (inactive)
COC(=O)c1c(C)cc(OC)cc1O | > 4 mM (inactive)
COc1cc(OC)c2c(=O)c(OC)c(-c3ccc(OC)c(OC)c3)oc2c1 | > 4 mM (inactive)
CC(=O)NC(=S)Nc1ccccc1N1CCOCC1 | > 4 mM (inactive)
CSc1nc(=O)[nH]c2c1CCC2 | > 4 mM (inactive)
Nc1ccc(C2SCCS2)cc1 | > 4 mM (inactive)
O=c1nc(N2CCCCC2)nc2n1CCO2 | > 4 mM (inactive)
CC1(C)CC[C@]2(C)CC[C@]3(C)C(=CCC4[C@@]5(C)CC[C@H](O)C(C)(C)C5CC[C@]43C)C2C1 (stereo partly drawn) | > 4 mM (inactive)
O=C(Nc1nc2ccccc2s1)c1ccc(=O)[nH]n1 | > 4 mM (inactive)

Structure (SMILES) | Kd
NCCc1ccc(S(N)(=O)=O)cc1 | > 4 mM (inactive)
CS(=O)(=O)Nc1cc2c3c(c1)CCN3C(=O)CC2 | > 4 mM (inactive)
NS(=O)(=O)c1ccc(NC(=O)C(F)(F)F)cc1 | > 4 mM (inactive)
CNC(=S)N1CCN(C(=O)c2ccco2)CC1 | > 4 mM (inactive)
COc1c2ccoc2cc2oc(=O)ccc12 | > 4 mM (inactive)
Cc1cc(C(=O)Nc2sc(C)c(C)c2C#N)c(C)o1 | > 4 mM (inactive)
Cn1cnnc1SCC(=O)Nc1ccccc1 | > 4 mM (inactive)
OC1CCC(C(F)(F)F)CC1 (stereo not drawn) | > 4 mM (inactive)
COC(=O)c1ccc(C(=S)N2CCOCC2)cc1 | > 4 mM (inactive)
Nc1ccccc1-n1cccn1 | > 4 mM (inactive)
Cc1ccc2c(c1)CCCN2C(=O)c1c(C)noc1C | > 4 mM (inactive)
CC(=O)O[C@@H]1CC2C(C)(C)[C@H](O)C=C[C@]2(C)C2CC[C@@]3(C)[C@H](c4ccoc4)OC(=O)C4OC43[C@@]21C (stereo partly drawn) | > 4 mM (inactive)
COc1ccccc1NC(=O)c1snnc1C | > 4 mM (inactive)
Nc1ccncc1 | > 4 mM (inactive)
NC1CSCC1O (stereo not drawn) | > 4 mM (inactive)
COC(=O)c1c(C)cc(OC(=O)c2c(C)cc(O)c(C=O)c2O)c(C)c1O | > 4 mM (inactive)
NC[C@H]1O[C@H](O[C@H]2[C@H](O)[C@@H](O[C@H]3O[C@H](CO)[C@@H](O)[C@H](N)[C@H]3O)[C@H](N)C[C@@H]2N)[C@H](N)[C@@H](O)[C@@H]1O | > 4 mM (inactive)
O=C(c1cccc(C(F)(F)F)c1)N1CCCC1 | > 4 mM (inactive)
NC(=O)NCCCC(N)C(=O)O (stereo not drawn) | > 4 mM (inactive)
C=C(C)C1(O)OC(=O)C=C1OC (stereo not drawn) | > 4 mM (inactive)
Cn1nc(-c2cccs2)cc1N | > 4 mM (inactive)
NC(=O)COc1ccccc1O | > 4 mM (inactive)
